Where a chain is given by its changes, count along the chain named. Read-outs that look alike come from different tables or passages of the source.
Key:
σ2 receptor = molecular target: T1, σ2 receptor (Rattus norvegicus, UniProt Q5U3Y7); test: σ2 receptor binding assay, [3H]DTG, rat liver membrane homogenates
T1 construct: rat liver membrane homogenates (35 μg of protein); from tissue; host or cells: rat liver membrane homogenates
T1 sequence (Q5U3Y7 1-176): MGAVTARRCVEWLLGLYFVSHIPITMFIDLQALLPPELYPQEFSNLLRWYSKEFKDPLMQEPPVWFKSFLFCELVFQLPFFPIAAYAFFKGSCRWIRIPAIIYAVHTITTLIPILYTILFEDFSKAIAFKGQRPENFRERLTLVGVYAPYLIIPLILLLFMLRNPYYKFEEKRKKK
Experimental: The σ2 receptor binding assay was conducted using rat liver membrane homogenates (35 μg of protein). […] Incubations were carried out in 50 mM Tris-HCl (pH 8.0) for 120 min at 25° C. in a total incubation volume of 0.5 ml. Test compounds were added in concentrations ranging from 0.005 to 1000 nM. […] Filters were washed twice with 5 ml of ice cold buffer. Nonspecific binding was determined in the presence of 5 μM DTG.

[1] = molecular target: T2, σ2 receptors in the breast tumors (Mus musculus, UniProt Q8VD00); test: In vivo blocking studies with YUN 143 in tumor-bearing mice; conditions: blocking agent YUN 143 (1 mg/kg, i.v.); time point of highest % I.D./gram tumor
T2 construct: mature Balb/c mice that were implanted with EMT-6 mammary tumors; from tissue; host or cells: EMT-6 mammary tumours in Balb/c mice, in vivo
T2 sequence (Q8VD00 1-176): T1 sequence (Q5U3Y7 1-176) with V4L, T5A, M26L, L33V, F71L, V105A, I118L, I127V, N136S, F169Y
Excerpt: The blocking agent was YUN 143, which has a high affinity for σ1 and σ2 receptors. Animals were sacrificed at the time point displaying the highest % I.D./gram tumor.
The inventors then conducted blocking studies in order to confirm that the radiotracer labeled σ2 receptors in the breast tumors. […] We have previously reported that [^18F]YUN 143 labels σ1 and σ2 receptors in breast tumor xenografts (Mach et al., 2001).

EMT-6 mammary tumors [2] = test: Comparison with [18F]FLT in tumor-bearing mice; type: in vivo; conditions: 1 hr for [11C]10; 2 hr post-i.v. injection for [76Br]6 and [125I]6i
EMT-6 mammary tumors [3] = test: Biodistribution in EMT-6 BALB/C mice; type: in vivo
Experimental: As used herein, the term “tumor:background ratio” (i.e., tumor:fat ratio, tumor:muscle ratio, tumor:lung ratio, tumor:blood ratio) refers to the % injected dose/g tissue of the radiotracer in the tumor divided by the % injected dose/g […] in the background tissue (i.e., fat, muscle, lung, blood).
B. Biodistribution Studies of ^11C analogs in Tumor-Bearing Mice. Biodistribution studies were conducted in mature Balb/c mice that were implanted with EMT-6 mammary tumors identified herein as EMT-6 BALB/C mice to create laboratory tumor-bearing mice. The mice were implanted in the scapular region seven days prior to the study. Animals were injected with 100-150 μCi of the ^11C-labeled radiotracer and the animals were sacrificed at 5, 30, and 60 min post-i.v. injection of the radiotracer.
A series of biodistribution studies in tumor-bearing mice were also conducted with [^76Br]8, [^76Br]6, [^125I]8i, and [^125I]6i.

Q: How did the Ki (σ2 receptor; Mean ± SEM, rat liver, [3H]DTG, read-out: Ki σ2) turn out when `COc1cc2c(cc1OC)CN(CCNC(=O)c1cc(C)ccc1OC)CC2` [Compound 9] was run?
A: The Ki was 0.0133 ± 0.0001 µM.

Q: What about the Ki (σ2 receptor; Table I, unit inferred, read-out: σ2) of the same compound?
A: The Ki was 0.0133 µM.

Q: Which “in vivo blocking study result” value [1] does the source give for `COc1cc2c(cc1OC)CN(CCCCNC(=O)c1cc(C)cc(OC)c1O[11CH3])CC2` [[^11C]10] here?
A: Its value is “consistent with the labeling of σ2 receptors in vivo”.

Q: What about the “tumor:background ratios compared with [18F]FLT” value (EMT-6 mammary tumors [2]) of the same compound?
A: The value was “tumor:lung and tumor:fat ratios equal to [^18F]FLT and tumor:blood, tumor:muscle and tumor:heart ratios that are greater than that of [18F]FLT”.

Q: What about the “ratio Tumor:blood” value (EMT-6 mammary tumors [3]; 5 min) of the same compound?
A: The value was 1.37 ± 0.33.

Q: And the “ratio Tumor:fat” value (EMT-6 mammary tumors [3]; 5 min)?
A: The value was 2.28 ± 0.32.

Q: What about the “ratio Tumor:heart” value (EMT-6 mammary tumors [3]; 5 min) of the same compound?
A: Its value is 0.71 ± 0.12.

Q: What about the “ratio Tumor:lung” value (EMT-6 mammary tumors [3]; 5 min) of the same compound?
A: Its value is 0.31 ± 0.11.

Q: And the “ratio Tumor:muscle” value (EMT-6 mammary tumors [3]; 5 min)?
A: Its value is 0.93 ± 0.13.

Q: And the “ratio Tumor:blood” value (EMT-6 mammary tumors [3]; 30 min)?
A: The value was 1.80 ± 0.26.

Q: And the “ratio Tumor:fat” value (EMT-6 mammary tumors [3]; 30 min)?
A: Its value is 3.68 ± 1.14.

Q: And the “ratio Tumor:heart” value (EMT-6 mammary tumors [3]; 30 min)?
A: Its value is 2.53 ± 0.55.

Q: What about the “ratio Tumor:lung” value (EMT-6 mammary tumors [3]; 30 min) of the same compound?
A: Its value is 1.06 ± 0.24.

Q: What about the “ratio Tumor:muscle” value (EMT-6 mammary tumors [3]; 30 min) of the same compound?
A: Its value is 3.18 ± 0.51.

Q: What about the “ratio Tumor:blood” value (EMT-6 mammary tumors [3]; 1 hour) of the same compound?
A: The value was 1.81 ± 0.11.

Q: What about the “ratio Tumor:fat” value (EMT-6 mammary tumors [3]; 1 hour) of the same compound?
A: The value was 5.36 ± 2.38.

Q: What about the “ratio Tumor:heart” value (EMT-6 mammary tumors [3]; 1 hour) of the same compound?
A: The value was 2.78 ± 0.79.

Q: What about the “ratio Tumor:lung” value (EMT-6 mammary tumors [3]; 1 hour) of the same compound?
A: The value was 1.28 ± 0.41.

Q: What about the “ratio Tumor:muscle” value (EMT-6 mammary tumors [3]; 1 hour) of the same compound?
A: The value was 2.78 ± 0.62.

Q: What about the “% ID per gram blood” value (EMT-6 mammary tumors [3]; 5 min) of the same compound?
A: Its value is 3.09 ± 0.33 % ID per gram.

Q: And the “% ID per gram blood” value (EMT-6 mammary tumors [3]; 30 min)?
A: The value was 1.31 ± 0.11 % ID per gram.

Q: What about the “% ID per gram blood” value (EMT-6 mammary tumors [3]; 1 hour) of the same compound?
A: Its value is 0.73 ± 0.05 % ID per gram.

Q: What about the “% ID per gram brain” value (EMT-6 mammary tumors [3]; 5 min) of the same compound?
A: The value was 2.29 ± 0.28 % ID per gram.

Q: And the “% ID per gram brain” value (EMT-6 mammary tumors [3]; 30 min)?
A: The value was 0.28 ± 0.03 % ID per gram.

Q: What about the “% ID per gram brain” value (EMT-6 mammary tumors [3]; 1 hour) of the same compound?
A: Its value is 0.15 ± 0.01 % ID per gram.

Q: And the “% ID per gram fat” value (EMT-6 mammary tumors [3]; 5 min)?
A: Its value is 1.88 ± 0.50 % ID per gram.

Q: And the “% ID per gram fat” value (EMT-6 mammary tumors [3]; 30 min)?
A: Its value is 0.68 ± 0.19 % ID per gram.

Q: What about the “% ID per gram fat” value (EMT-6 mammary tumors [3]; 1 hour) of the same compound?
A: The value was 0.33 ± 0.24 % ID per gram.

Q: What about the “% ID per gram heart” value (EMT-6 mammary tumors [3]; 5 min) of the same compound?
A: The value was 5.86 ± 0.47 % ID per gram.

Q: What about the “% ID per gram heart” value (EMT-6 mammary tumors [3]; 30 min) of the same compound?
A: The value was 0.95 ± 0.17 % ID per gram.

Q: What about the “% ID per gram heart” value (EMT-6 mammary tumors [3]; 1 hour) of the same compound?
A: The value was 0.50 ± 0.11 % ID per gram.

Q: What about the “% ID per gram kidney” value (EMT-6 mammary tumors [3]; 5 min) of the same compound?
A: Its value is 20.50 ± 1.86 % ID per gram.

Q: What about the “% ID per gram kidney” value (EMT-6 mammary tumors [3]; 30 min) of the same compound?
A: The value was 4.12 ± 0.51 % ID per gram.

Q: What about the “% ID per gram kidney” value (EMT-6 mammary tumors [3]; 1 hour) of the same compound?
A: Its value is 2.26 ± 0.36 % ID per gram.

Q: And the “% ID per gram liver” value (EMT-6 mammary tumors [3]; 5 min)?
A: The value was 12.32 ± 1.73 % ID per gram.

Q: What about the “% ID per gram liver” value (EMT-6 mammary tumors [3]; 30 min) of the same compound?
A: The value was 9.65 ± 2.00 % ID per gram.

Q: And the “% ID per gram liver” value (EMT-6 mammary tumors [3]; 1 hour)?
A: The value was 3.00 ± 0.21 % ID per gram.

Q: What about the “% ID per gram lung” value (EMT-6 mammary tumors [3]; 5 min) of the same compound?
A: The value was 14.02 ± 1.40 % ID per gram.

Q: What about the “% ID per gram lung” value (EMT-6 mammary tumors [3]; 30 min) of the same compound?
A: Its value is 2.27 ± 0.42 % ID per gram.

Q: And the “% ID per gram lung” value (EMT-6 mammary tumors [3]; 1 hour)?
A: The value was 1.09 ± 0.26 % ID per gram.

Q: And the “% ID per gram muscle” value (EMT-6 mammary tumors [3]; 5 min)?
A: Its value is 4.49 ± 0.45 % ID per gram.

Q: What about the “% ID per gram muscle” value (EMT-6 mammary tumors [3]; 30 min) of the same compound?
A: The value was 0.75 ± 0.13 % ID per gram.

Q: And the “% ID per gram muscle” value (EMT-6 mammary tumors [3]; 1 hour)?
A: The value was 0.49 ± 0.11 % ID per gram.

Q: And the “% ID per gram tumor” value (EMT-6 mammary tumors [3]; 5 min)?
A: Its value is 4.22 ± 1.01 % ID per gram.

Q: What about the “% ID per gram tumor” value (EMT-6 mammary tumors [3]; 30 min) of the same compound?
A: Its value is 2.35 ± 0.27 % ID per gram.

Q: And the “% ID per gram tumor” value (EMT-6 mammary tumors [3]; 1 hour)?
A: Its value is 1.32 ± 0.17 % ID per gram.

Reference: patent US7893266B2, “Detection of cancer cells in vitro using sigma-2 receptor ligands as radiotracers” (Washington University, priority 2003, dated 2011)
